Here are results for 33 compounds from US20120202794A1 (priority 2011, published 2012).

The subject of one series is HCV Replicon 1b. The experiment in a line: HCV inhibition assay, HCV replicon 1b (Clone A or ET-lunet cells; RT-PCR or luciferase reporter). Type of series: cell-based. The settings on record: Hepatitis C virus, 96 h, HCV replicon 1b; 4 days incubation; read-out: Replicon 1b potency EC90. The essentials: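 Clone A (1500/well) or ET-lunet (3000/well) replicon cells treated with serially diluted compounds (0.5% DMSO, no G418) for 4 days at 37 °C. HCV RNA measured by one-step RT-PCR normalized to rRNA (ΔΔCt) or by luciferase luminescence versus DMSO controls; EC50/EC90 by curve fitting.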
(In general: A replicon is a self-replicating genome or part of one, used to study replication in cells.)

A short description of series [1]: Cell cytotoxicity assay (MTS), CC90 as reported in Table 1, cell line not stated. Type of series: cell-based. The following applies: human, cell line not given. The essentials: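 Compounds, serially diluted from 100 μM, were incubated 8 days at 37° C with Huh7, HepG2 or BxPC3 (2×10^3 cells/well) or CEM (5×10^3 cells/well). Viability was read by MTS, 2 h, absorbance 490 nm. CC90 (90% inhibition) was taken against untreated cells.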

Usually EC90 stands for the point of the concentration-response curve where the effect stands at 90%. For `CC(C)C[C@H]1C(=O)N[C@@H](C2CCCC2)CN1C(=O)[C@@H]1C[C@H]1c1ccccc1` [Compound 232, (3S,6S)-6-cyclopentyl-3-isobutyl-4-((1R,2R)-2-phenylcyclopropanecarbonyl)-piperazin-2-one], in the series with HCV Replicon 1b, the EC90 is 0.69 µM. The CC90 at 8 days in series [1] is over 10 µM.
With `CC(C)C[C@H]1C(=O)N[C@@H](c2ccccc2)CN1C(=O)c1cc(-c2ccc(F)cc2)on1` [Compound 178], the EC90 in the series with HCV Replicon 1b came to 0.05 µM. Further, the CC90 at 8 days in series [1] is over 10 µM.
With `CCC[C@H]1CN(C(=O)[C@@H]2C[C@H]2c2ccc(F)c(F)c2)[C@@H](CC(C)C)C(=O)N1` [Compound 257, (3S,6S)-4-[(1R,2R)-2-(3,4-Difluoro-phenyl)-cyclopropanecarbonyl]-3-isobutyl-6-propyl-piperazin-2-one], the EC90 in the series with HCV Replicon 1b was 0.59 µM. Besides, in series [1], the CC90 at 8 days was over 10 µM.
Turning to `CC(C)C[C@H]1C(=O)N[C@@H](c2ccccc2)CN1C(=O)[C@@H]1C[C@H]1c1ccc(F)c(F)c1` [Compound 260, (3S,6S)-4-[(1R,2R)-2-(3,4-Difluoro-phenyl)-cyclopropanecarbonyl]-3-isobutyl-6-phenyl-piperazin-2-one], the EC90 in the series on HCV Replicon 1b was 0.23 µM. Also, in series [1], the CC90 at 8 days was over 10 µM.
With `CC(C)C[C@H]1C(=O)N[C@@H](c2ccccc2)CN1C(=O)c1noc(-c2ccc(F)cc2)c1F` [Compound 376, (3S,6S)-4-(4-fluoro-5-(4-fluorophenyl)isoxazole-3-carbonyl)-3-isobutyl-6-phenyl-piperazin-2-one], the EC90 in the series with HCV Replicon 1b is 0.5 µM. In series [1] (MTS assay, 8 days incubation), this compound yielded a CC90 at 8 days of over 10 µM.
As for `CSC[C@H]1CN(C(=O)[C@@H]2C[C@H]2c2ccc(F)cc2)[C@@H](CC(C)C)C(=O)N1` [Compound 299, (3S,6R)-4-((1R,2R)-2-(4-fluorophenyl)cyclopropanecarbonyl)-3-isobutyl-6-((methylthio)methyl)piperazin-2-one], the EC90 in the series with HCV Replicon 1b amounted to 0.63 µM. The CC90 at 8 days in series [1] (MTS assay, 8 days incubation) was over 10 µM.
Take `CC(C)C[C@H]1C(=O)N[C@@H](c2ccc[nH]2)CN1C(=O)c1cc(-c2ccc(F)cc2)on1` [Compound 523, (3S,6R)-4-(5-(4-fluorophenyl)isoxazole-3-carbonyl)-3-isobutyl-6-(1H-pyrrol-2-yl)piperazin-2-one]: the EC90 with HCV Replicon 1b came out at 1.06 µM. Moreover, the CC90 at 8 days in series [1] (MTS assay, 8 days incubation) was over 10 µM.
For the compound `CC(C)C[C@H]1CN(C(=O)/C=C/c2cccnc2)[C@@H](CC(C)C)C(=O)N1` [Compound 74], in the series with HCV Replicon 1b, the EC90 was over 10 µM. Moreover, the CC90 at 8 days in series [1] was over 10 µM.
In the case of `CC(C)C[C@H]1C(=O)N[C@@H](c2ccccc2F)CN1C(=O)c1noc(-c2ccc(F)cc2)c1F` [Compound 380, (3S,6S)-4-(4-fluoro-5-(4-fluorophenyl)isoxazole-3-carbonyl)-6-(2-fluorophenyl)-3-isobutylpiperazin-2-one], the EC90 with HCV Replicon 1b was found to be 0.18 µM. The same compound returned a CC90 at 8 days in series [1] (MTS assay, 8 days incubation) of over 10 µM.
For the compound `C/C(=C\C(=O)N1C[C@H](CC(C)C)NC(=O)[C@@H]1CC(C)C)c1ccccc1` [Compound 75], the EC90 with HCV Replicon 1b is over 10 µM. Moreover, the CC90 at 8 days in series [1] is over 10 µM.
`CC(C)C[C@H]1C(=O)N[C@@H](C2CCCCC2)CN1C(=O)[C@@H]1C[C@H]1c1ccc(F)c(F)c1` [Compound 258, (3S,6S)-6-Cyclohexyl-4-[(1R,2R)-2-(3,4-difluoro-phenyl)-cyclopropanecarbonyl]-3-isobutyl-piperazin-2-one]: the EC90 in the series with HCV Replicon 1b came to 0.56 µM. This compound gave a CC90 at 8 days in series [1] of over 10 µM.
For the compound `CC(C)C[C@H]1C(=O)N[C@@H](c2ccccc2)CN1C(=O)c1cc(-c2ccc(F)c(F)c2)on1` [Compound 188], the EC90 in the series on HCV Replicon 1b was determined as 0.18 µM. The compound also came in with a CC90 at 8 days in series [1] of over 10 µM.
For `Cc1ccc([C@H]2CN(C(=O)c3cc(-c4ccc(F)cc4)on3)[C@@H](CC(C)C)C(=O)N2)cc1` [Compound 348, (3S,6S)-4-(5-(4-fluorophenyl)isoxazole-3-carbonyl)-3-isobutyl-6-(p-tolyl)piperazin-2-one], the EC90 in the series with HCV Replicon 1b stood at 1.8 µM. Besides, the CC90 at 8 days in series [1] (MTS assay, 8 days incubation) is over 10 µM.
Regarding `CC(C)C[C@H]1C(=O)N[C@@H](c2ccccc2)CN1C(=O)c1nc(-c2ccc(F)cc2)no1` [Compound 151], the 90% effect concentration (EC90) with HCV Replicon 1b is 0.04 µM. Besides, in series [1], the CC90 at 8 days is over 10 µM.
Turning to `CC(C)(C)C[C@H]1C(=O)N[C@@H](c2ccccc2)CN1C(=O)[C@@H]1C[C@H]1c1ccccc1` [Compound 344, (3S,6S)-3-neopentyl-6-phenyl-4-((1R,2R)-2-phenylcyclopropanecarbonyl)piperazin-2-one], in the series on HCV Replicon 1b, the EC90 was found to be 1 µM. This compound came in with a CC90 at 8 days in series [1] (MTS assay, 8 days incubation) of over 10 µM.
For the compound `CC(C)C[C@H]1CN(C(=O)c2cc(-c3ccc(Cl)cc3F)on2)[C@@H](CC(C)C)C(=O)N1` [Compound 143], the EC90 with HCV Replicon 1b was determined as 1.21 µM. This compound gave a CC90 at 8 days in series [1] of over 10 µM.
With `CC(C)C[C@H]1CN(Cc2cc(-c3ccco3)on2)[C@@H](CC(C)C)C(=O)N1` [Compound 201, (3S,6S)-4-((5-(Furan-2-yl)isoxazol-3-yl)methyl)-3,6-diisobutylpiperazin-2-one], the EC90 in the series with HCV Replicon 1b turned out to be 1.82 µM. In series [1], the CC90 at 8 days was over 10 µM.
As for `CC(C)C[C@H]1CN(C(=O)/C=C/c2cc(F)c(F)c(F)c2)[C@@H](CC(C)C)C(=O)N1` [Compound 84], the EC90 in the series with HCV Replicon 1b came to 2.64 µM. In series [1], this compound gave a CC90 at 8 days of over 10 µM.
Take `O=C1N[C@@H](c2ccccc2)CN(C(=O)c2cc(-c3ccc(F)cc3)on2)[C@H]1CC1CC1` [Compound 336, (3S,6S)-3-(cyclopropylmethyl)-4-(5-(4-fluorophenyl)isoxazole-3-carbonyl)-6-phenylpiperazin-2-one]: the EC90 in the series on HCV Replicon 1b is 0.36 µM. This compound displayed a CC90 at 8 days in series [1] (MTS assay, 8 days incubation) of over 10 µM.
Regarding `CC(C)C[C@H]1C(=O)N[C@H](c2ccccc2)CCN1C(=O)[C@@H]1C[C@H]1c1ccccc1` [Compound 417, (3S,75)-3-isobutyl-7-phenyl-4-((1R,2R)-2-phenylcyclopropanecarbonyl)-1,4-diazepan-2-one], the EC90 with HCV Replicon 1b came to 7.77 µM. Moreover, in series [1] (MTS assay, 8 days incubation), the CC90 at 8 days was over 10 µM.
As for `CC(C)C[C@H]1C(=O)N[C@@H](c2ccco2)CN1C(=O)c1cc(-c2ccc(F)cc2)on1` [Compound 484, (3S,6R)-4-(5-(4-fluorophenyl)isoxazole-3-carbonyl)-6-(furan-2-yl)-3-isobutylpiperazin-2-one], the EC90 in the series on HCV Replicon 1b amounted to 0.18 µM. Besides, the CC90 at 8 days in series [1] (MTS assay, 8 days incubation) was over 10 µM.
For the compound `CC(C)C[C@H]1C(=O)N[C@@H](C2CCCCC2)CN1C(=O)[C@@H]1C[C@H]1c1ccc(Cl)cc1` [Compound 245, (3S,6S)-4-[(1R,2R)-2-(4-Chloro-phenyl)-cyclopropanecarbonyl]-6-cyclohexyl-3-isobutyl-piperazin-2-one], the EC90 with HCV Replicon 1b turned out to be 0.62 µM. This compound also had a CC90 at 8 days in series [1] of over 10 µM.
For `CC(C)C[C@H]1CN(C(=O)c2cnn(-c3ccc(F)cc3)c2)[C@@H](CC(C)C)C(=O)N1` [Compound 104], the EC90 in the series on HCV Replicon 1b is 4.74 µM. The CC90 at 8 days in series [1] was over 10 µM.
Turning to `CC(C)C[C@H]1CN(C(=O)/C=C/c2ccc(-c3ccccc3)cc2)[C@@H](CC(C)C)C(=O)N1` [Compound 94], the EC90 with HCV Replicon 1b worked out at 8.37 µM. In addition, in series [1], the CC90 at 8 days was over 10 µM.
For the compound `CC(C)C[C@H]1CN(C(=O)c2cc(-c3ccc(Cl)cc3Cl)on2)[C@@H](CC(C)C)C(=O)N1` [Compound 275, (3S,6S)-4-(5-(2,4-dichlorophenyl)isoxazole-3-carbonyl)-3,6-diisobutylpiperazin-2-one], the EC90 with HCV Replicon 1b worked out at 6.31 µM. This compound also came in with a CC90 at 8 days in series [1] (MTS assay, 8 days incubation) of over 10 µM.
Regarding `CC(C)C[C@H]1CN(C(=O)c2cc(-c3ccc(Br)cc3)on2)[C@@H](CC(C)C)C(=O)N1` [Compound 135], in the series with HCV Replicon 1b, the EC90 is 0.47 µM. In series [1], this compound had a CC90 at 8 days of over 10 µM.
Consider `CSC[C@H]1C(=O)N[C@@H](c2ccccc2)CN1C(=O)c1noc(-c2ccc(F)cc2)n1` [Compound 466, (3R,6S)-4-(5-(4-fluorophenyl)-1,2,4-oxadiazole-3-carbonyl)-3-((methylthio)methyl)-6-phenylpiperazin-2-one], for which, in the series on HCV Replicon 1b, the EC90 amounted to 0.65 µM. In series [1] (MTS assay, 8 days incubation), this compound returned a CC90 at 8 days of over 10 µM.
In the case of `CC(C)C[C@H]1CN(C(=O)/C=C/c2c(F)cccc2F)[C@@H](CC(C)C)C(=O)N1` [Compound 271, (3S,6S)-4-[3-(2,6-Difluoro-phenyl)-acryloyl]-3,6-diisobutyl-piperazin-2-one], the EC90 in the series with HCV Replicon 1b is over 10 µM. In series [1] (MTS assay, 8 days incubation), this compound yielded a CC90 at 8 days of over 10 µM.
Turning to `CC(C)C[C@H]1CN(C(=O)c2cc(-c3ccc(Cl)c(F)c3)on2)[C@@H](CC(C)C)C(=O)N1` [Compound 134], in the series with HCV Replicon 1b, the EC90 was 0.89 µM. In series [1], this compound showed a CC90 at 8 days of over 10 µM.
`CC(C)C[C@H]1C(=O)N[C@@H](C2CCCCC2)CN1C(=O)c1cc(-c2ccc(Cl)cc2)no1` [Compound 315, (3S,6S)-4-(3-(4-chlorophenyl)isoxazole-5-carbonyl)-6-cyclohexyl-3-isobutylpiperazin-2-one]: in the series on HCV Replicon 1b, the EC90 was 0.7 µM. The compound further came in with a CC90 at 8 days in series [1] (MTS assay, 8 days incubation) of over 10 µM.
Consider `CC(C)C[C@H]1CN(C(=O)c2ccc(Oc3ccccc3)cc2)[C@@H](CC(C)C)C(=O)N1` [Compound 89], for which the EC90 with HCV Replicon 1b stood at 6.88 µM. This compound also yielded a CC90 at 8 days in series [1] of over 10 µM.
`CC(C)C[C@H]1CN(C(=O)c2cc(-c3ccccc3)[nH]n2)[C@@H](CC(C)C)C(=O)N1` [Compound 100]: the EC90 with HCV Replicon 1b was over 10 µM. In addition, the CC90 at 8 days in series [1] is over 10 µM.
Take `CC(C)C[C@H]1CN(C(=O)/C=C/c2ccccc2Cl)[C@@H](CC(C)C)C(=O)N1` [Compound 265, (3S,6S)-4-[3-(2-chlorophenyl)-acryloyl]-3,6-diisobutyl-piperazin-2-one]: in the series on HCV Replicon 1b, the EC90 was 9.75 µM. In series [1] (MTS assay, 8 days incubation), this compound had a CC90 at 8 days of over 10 µM.
